These compounds were tested on A549 (assay: Cell growth inhibition assay (SRB), A549). Conditions: A549 (lung), 96 hours.
Assay type: cell-based, Human
Excerpt: (§1) Cancer cells used in this study to determine the effect of quinazoline compounds were obtained from the following sources: Human OVCAR-3 (ovary), MCF-7 (breast, hormone-dependent), Hs 578T (breast), MDA-MB-231 (breast), HeLa (cervix), PC3 (prostate), HepG2 (liver), A549 (lung), Caki-1 (kidney), HT-29 (colon), HCT116 (colon) and PANC-1 (pancreas) from the American Type Culture Collection (ATCC) (Manassas, Va.); U251 (brain) from Riken (Japan); MKN-45 (stomach) from DSMZ (Germany); UMRC2 (kidney) and Lox IMVI (melanoma) from the United States National Cancer Institute (Bethesda, Md.). All cell lines except Hs 578T, MDA-MB-231, HCT116, UMRC2, Caki-1 and PANC-1 were grown in RPMI1640 medium (Invitrogen, Carlsbad, Calif.) supplemented with 10% fetal bovine serum (“FBS”), 1 mM sodium pyruvate, 10 mM HEPES and 100 U/ml penicillin and 100 μg/ml streptomycin (“P/S”). Hs 578T, MDA-MB-231, HCT116, UMRC2, Caki-1 and PANC-1 cells were maintained in Dulbecco's modified Eagle's medium (“DMEM”, Invitrogen) supplemented with 10% FBS, P/S, 10 mM HEPES and 2 mM L-glutamine. All cells were incubated at 37° C. under humidified 5% CO2.
(§2) The growth inhibition of the substituted quinazoline derivative compounds against a variety of human tumor cells was evaluated. The relative importance of particular substituent groups on the compounds was also studied. The substituted quinazoline derivative compounds, prepared as described above, were tested, along with DMSO as a control.
(§3) The growth inhibition assay of various compounds against 15 human tumor cell lines was performed using the Sulforhodamnine B (“SRB”) method (Skehan et al., J. National Cancer Institute, 82: 1107-1112 (1990)). Briefly, exponentially growing tumor cells were seeded into a 96-well plate at a density of 2-3×10^3 cells/well and treated with quinazoline compounds the next day. Triplicate wells were used for each treatment. The cells were. incubated with the various compounds for 96 hours at 37° C. in a humidified 5% CO2 atmosphere. After 96-hour incubation, cells were fixed with 10% trichloroacetic acid (“TCA”), incubated for 1 hour at 4° C., and washed 3 times with tap water. Subsequently cells were stained with 0.4% sulforhodamine B in 1% acetic acid for 30 minutes, washed 4 times with 1% acetic acid, and air-dried again. After 5 minutes agitation in 10 mM Tris solution, the absorbance of each well was measured at 530 nm using Benchmark Plus Microplate reader (Bio-Rad Laboratories, Hercules, Calif.).
(§4) To translate the OD530 values into the number of live cells in each well, the OD530 values were compared to those on standard OD530—versus—cell number curves generated for each cell line. The percent survival was calculated using the formula: % Survival=live cell number [test]/live cell number [control]×100
(§5) The IC50 values were calculated by non-linear regression analysis.

| Compound | IC50 |
| --- | --- |
| FC(F)(F)c1ccccc1CNc1ncnc2ccc(Br)cc12 [RX-1260] | > 3 µM |
| Fc1cc(Cl)ccc1Nc1ncnc2ccc(I)cc12 [RX-1701] | > 3 µM |
| Fc1cccc(CCNc2ncnc3ccccc23)c1 [RX-1195] | 2.1 µM |
| Fc1cccc(CCNc2ncnc3ccc(Br)cc23)c1 [RX-1242] | 2.4 µM |

These compounds were tested on HepG2 (assay: Cell growth inhibition assay (SRB), HepG2). Conditions: HepG2 (liver), 96 hours, read-out: Inhibition of cell growth (IC50, μM) HepG 2.
Assay type: cell-based, Human
Excerpt: as §1, §2, §3, §4, §5

| Compound | IC50 |
| --- | --- |
| FC(F)(F)c1ccccc1CNc1ncnc2ccc(Br)cc12 [RX-1260] | 2.25 µM |
| Fc1cc(Cl)ccc1Nc1ncnc2ccc(I)cc12 [RX-1701] | 1.16 µM |
| Fc1cccc(CCNc2ncnc3ccccc23)c1 [RX-1195] | 1.18 µM |
| Fc1cccc(CCNc2ncnc3ccc(Br)cc23)c1 [RX-1242] | 0.9 µM |

These compounds were tested on MKN-45 (assay: Cell growth inhibition assay (SRB), MKN-45). Conditions: MKN-45 (stomach), 96 hours.
Assay type: cell-based, Human
Excerpt: as §1, §2, §3, §4, §5

| Compound | IC50 |
| --- | --- |
| FC(F)(F)c1ccccc1CNc1ncnc2ccc(Br)cc12 [RX-1260] | > 3 µM |
| Fc1cc(Cl)ccc1Nc1ncnc2ccc(I)cc12 [RX-1701] | > 3 µM |
| Fc1cccc(CCNc2ncnc3ccccc23)c1 [RX-1195] | > 3 µM |
| Fc1cccc(CCNc2ncnc3ccc(Br)cc23)c1 [RX-1242] | > 3 µM |

The compounds below were run on PANC-1 (assay: Cell growth inhibition assay (SRB), PANC-1). Conditions: PANC-1 (pancreas), 96 hours.
Assay type: cell-based, Human
Excerpt: as §1, §2, §3, §4, §5

| Compound | IC50 |
| --- | --- |
| FC(F)(F)c1ccccc1CNc1ncnc2ccc(Br)cc12 [RX-1260] | > 3 µM |
| Fc1cc(Cl)ccc1Nc1ncnc2ccc(I)cc12 [RX-1701] | > 3 µM |
| Fc1cccc(CCNc2ncnc3ccccc23)c1 [RX-1195] | 0.34 µM |
| Fc1cccc(CCNc2ncnc3ccc(Br)cc23)c1 [RX-1242] | > 3 µM |

These compounds were tested on HT-29 (assay: Cell growth inhibition assay (SRB), HT-29). Conditions: HT-29 (colon), 96 hours.
Assay type: cell-based, Human
Excerpt: as §1, §2, §3, §4, §5

| Compound | IC50 |
| --- | --- |
| FC(F)(F)c1ccccc1CNc1ncnc2ccc(Br)cc12 [RX-1260] | > 3 µM |
| Fc1cc(Cl)ccc1Nc1ncnc2ccc(I)cc12 [RX-1701] | > 3 µM |
| Fc1cccc(CCNc2ncnc3ccccc23)c1 [RX-1195] | 2.07 µM |
| Fc1cccc(CCNc2ncnc3ccc(Br)cc23)c1 [RX-1242] | > 3 µM |

These compounds were tested on PC3 (assay: Cell growth inhibition assay (SRB), PC3). Conditions: PC3 (prostate), 96 hours.
Assay type: cell-based, Human
Excerpt: as §1, §2, §3, §4, §5

| Compound | IC50 |
| --- | --- |
| FC(F)(F)c1ccccc1CNc1ncnc2ccc(Br)cc12 [RX-1260] | > 3 µM |
| Fc1cc(Cl)ccc1Nc1ncnc2ccc(I)cc12 [RX-1701] | > 3 µM |
| Fc1cccc(CCNc2ncnc3ccccc23)c1 [RX-1195] | > 3 µM |
| Fc1cccc(CCNc2ncnc3ccc(Br)cc23)c1 [RX-1242] | > 3 µM |

These compounds were tested on U251 (assay: Cell growth inhibition assay (SRB), U251). Conditions: U251 (brain), 96 hours.
Assay type: cell-based, Human
Excerpt: as §1, §2, §3, §4, §5

| Compound | IC50 |
| --- | --- |
| FC(F)(F)c1ccccc1CNc1ncnc2ccc(Br)cc12 [RX-1260] | 0.69 µM |
| Fc1cc(Cl)ccc1Nc1ncnc2ccc(I)cc12 [RX-1701] | 2.19 µM |
| Fc1cccc(CCNc2ncnc3ccccc23)c1 [RX-1195] | 1.95 µM |
| Fc1cccc(CCNc2ncnc3ccc(Br)cc23)c1 [RX-1242] | 0.56 µM |

The compounds below were run on HeLa (assay: Cell growth inhibition assay (SRB), HeLa). Conditions: HeLa (cervix), 96 hours.
Assay type: cell-based, Human
Excerpt: as §1, §2, §3, §4, §5

| Compound | IC50 |
| --- | --- |
| FC(F)(F)c1ccccc1CNc1ncnc2ccc(Br)cc12 [RX-1260] | > 3 µM |
| Fc1cc(Cl)ccc1Nc1ncnc2ccc(I)cc12 [RX-1701] | > 3 µM |
| Fc1cccc(CCNc2ncnc3ccccc23)c1 [RX-1195] | > 3 µM |
| Fc1cccc(CCNc2ncnc3ccc(Br)cc23)c1 [RX-1242] | > 3 µM |

These compounds were tested on Lox IMVI (assay: Cell growth inhibition assay (SRB), Lox IMVI). Conditions: Lox IMVI (melanoma), 96 hours.
Assay type: cell-based, Human
Excerpt: as §1, §2, §3, §4, §5

| Compound | IC50 |
| --- | --- |
| FC(F)(F)c1ccccc1CNc1ncnc2ccc(Br)cc12 [RX-1260] | > 3 µM |
| Fc1cc(Cl)ccc1Nc1ncnc2ccc(I)cc12 [RX-1701] | > 3 µM |
| Fc1cccc(CCNc2ncnc3ccccc23)c1 [RX-1195] | 2.16 µM |
| Fc1cccc(CCNc2ncnc3ccc(Br)cc23)c1 [RX-1242] | 0.73 µM |

What follows are compounds tested on OVCAR-3 (assay: Cell growth inhibition assay (SRB), OVCAR-3). Conditions: OVCAR-3 (ovary), 96 hours.
Assay type: cell-based, Human
Excerpt: as §1, §2, §3, §4, §5

| Compound | IC50 |
| --- | --- |
| FC(F)(F)c1ccccc1CNc1ncnc2ccc(Br)cc12 [RX-1260] | > 3 µM |
| Fc1cc(Cl)ccc1Nc1ncnc2ccc(I)cc12 [RX-1701] | > 3 µM |
| Fc1cccc(CCNc2ncnc3ccccc23)c1 [RX-1195] | 2.6 µM |
| Fc1cccc(CCNc2ncnc3ccc(Br)cc23)c1 [RX-1242] | > 3 µM |

The compounds below were run on MCF-7 (assay: Cell growth inhibition assay (SRB), MCF-7). Conditions: MCF-7 (breast, hormone-dependent), 96 hours.
Assay type: cell-based, Human
Excerpt: as §1, §2, §3, §4, §5

| Compound | IC50 |
| --- | --- |
| FC(F)(F)c1ccccc1CNc1ncnc2ccc(Br)cc12 [RX-1260] | 0.74 µM |
| Fc1cc(Cl)ccc1Nc1ncnc2ccc(I)cc12 [RX-1701] | 1.36 µM |
| Fc1cccc(CCNc2ncnc3ccccc23)c1 [RX-1195] | 1.53 µM |
| Fc1cccc(CCNc2ncnc3ccc(Br)cc23)c1 [RX-1242] | 0.58 µM |

These compounds were tested on MDA-MB-231 (assay: Cell growth inhibition assay (SRB), MDA-MB-231). Conditions: MDA-MB-231 (breast), 96 hours.
Assay type: cell-based, Human
Excerpt: as §1, §2, §3, §4, §5

| Compound | IC50 |
| --- | --- |
| FC(F)(F)c1ccccc1CNc1ncnc2ccc(Br)cc12 [RX-1260] | > 3 µM |
| Fc1cc(Cl)ccc1Nc1ncnc2ccc(I)cc12 [RX-1701] | > 3 µM |
| Fc1cccc(CCNc2ncnc3ccccc23)c1 [RX-1195] | 0.46 µM |
| Fc1cccc(CCNc2ncnc3ccc(Br)cc23)c1 [RX-1242] | 0.88 µM |

Each compound was assayed on Hs 578T (assay: Cell growth inhibition assay (SRB), Hs 578T). Conditions: Hs 578T (breast), 96 hours.
Assay type: cell-based, Human
Excerpt: as §1, §2, §3, §4, §5

| Compound | IC50 |
| --- | --- |
| FC(F)(F)c1ccccc1CNc1ncnc2ccc(Br)cc12 [RX-1260] | > 3 µM |
| Fc1cc(Cl)ccc1Nc1ncnc2ccc(I)cc12 [RX-1701] | > 3 µM |
| Fc1cccc(CCNc2ncnc3ccccc23)c1 [RX-1195] | 0.44 µM |
| Fc1cccc(CCNc2ncnc3ccc(Br)cc23)c1 [RX-1242] | 1.03 µM |

Each compound was assayed on UMRC2 (assay: Cell growth inhibition assay (SRB), UMRC2). Conditions: UMRC2 (kidney), 96 hours.
Assay type: cell-based, Human
Excerpt: as §1, §2, §3, §4, §5

| Compound | IC50 |
| --- | --- |
| FC(F)(F)c1ccccc1CNc1ncnc2ccc(Br)cc12 [RX-1260] | > 3 µM |
| Fc1cc(Cl)ccc1Nc1ncnc2ccc(I)cc12 [RX-1701] | > 3 µM |
| Fc1cccc(CCNc2ncnc3ccccc23)c1 [RX-1195] | 0.41 µM |
| Fc1cccc(CCNc2ncnc3ccc(Br)cc23)c1 [RX-1242] | 1.29 µM |

These compounds were tested on Caki-1 (assay: Cell growth inhibition assay (SRB), Caki-1). Conditions: Caki-1 (kidney), 96 hours.
Assay type: cell-based, Human
Excerpt: as §1, §2, §3, §4, §5

| Compound | IC50 |
| --- | --- |
| FC(F)(F)c1ccccc1CNc1ncnc2ccc(Br)cc12 [RX-1260] | > 3 µM |
| Fc1cc(Cl)ccc1Nc1ncnc2ccc(I)cc12 [RX-1701] | 2.85 µM |
| Fc1cccc(CCNc2ncnc3ccccc23)c1 [RX-1195] | > 3 µM |
| Fc1cccc(CCNc2ncnc3ccc(Br)cc23)c1 [RX-1242] | 2.39 µM |
